Laboratory results from patent US12637498B2, “PDLIM2 as a biomarker for cancer and as an anti-cancer treatment target” (UNIVERSITY OF PITTSBURGH—OF THE COMMONWEALTH SYSTEM OF …, priority 2019, dated 2026).
“Also recorded” adds a separate entry of the source.

Experiments:
[1] = test system: BACH1; test: IF analysis of BACH1 nuclear translocation in AMs of mice with lung tumors; parameters: species or system mouse; details: mice with lung tumors (urethane); in vivo treatment, 5 mg/ml in drinking water
Method: (§1) The animal experiments were performed in accordance with the US National Institutes of Health (NIH) Guidelines on the Use of Laboratory Animals. All animals were maintained under pathogen-free conditions. […], […] and Lysozyme M-Cre mice have been described before (Sun et al., Nat Commun 2019; 10:5324; Zhou et al., Oncogene 2015; 34:3804-3814; Zhou et al., Cancer Immunol Res 2017; 5:257-268; Li et al., Oncoimmunology 2018; 7:e1435250). Luciferase-expressing mice, PD-1 deficient mice and CD80/CD86 deficient mice were purchased from The Jackson Laboratory. Except for the PD-1 deficient mice and CD80/CD86 deficient mice, which are under […] background, all other mice were backcrossed to FVB/N mice (The Jackson Laboratory) for more than ten generations, and then used to generate the experimental mice. […] Louis, MO, USA) once a week for six consecutive weeks (8-10). […] Surface tumors in mouse lungs were counted by three blinded readers under a dissecting microscope, and tumor diameters were measured by microcalipers. […] Stained proteins and their subcellular localizations were detected using a fluorescence microscope.

[2] = test system: PDLIM2; test: qPCR of PDLIM2 in RAW264.7 macrophages; format: cell-based, mouse; details: RAW264.7 macrophages in LLC lung tumor cell co-culture
Text: The indicated tissues or cells were subjected to RNA extraction, RNA reverse transcription and real-time PCR using trizol, reverse transcriptase, and Power SYBR Green PCR Master Mix (Thermo Fisher Scientific, Waltham, MA USA).

[3] = test system: PDLIM2; test: qPCR and IF of PDLIM2 in AMs of mice with lung tumors; parameters: species or system mouse; details: mice with lung tumors (urethane); in vivo treatment
Method: as §1, with “microscope. […]” for “microscope.”

[4] = test system: human lung cancer cells; test: Cell growth assays; format: cell-based; details: human lung cancer cells with PDLIM2 knockdown (shRNA), in vitro
Method: Cells were seeded into 12-well plates at a density of 5,000 cells per well, in the presence or absence of the indicated treatment. Cell density was determined by replacing the medium with 2 μmol/L of calcein AM in 1× dissociation solution (Trevigen) at the indicated time points. After 1 h of incubation, diesterase activity (relative fluorescence units) was measured with a Tecan Infinite 200 Microplate Reader, using an excitation wavelength of 485 nm and emission wavelength of 520 nm.

[5] = test system: PD-L1; test: qPCR of PD-L1 in lung cancer cells; format: cell-based, human; details: lung cancer cells
Text: Mouse lung tissues and BAL cells were subjected to RNA extraction, RNA reverse transcription and real-time PCR as described (Li et al., Oncoimmunology 7, e1435250 (2018); Sun et al., Bio. Protoc. 7, pii: e2287 (2017)).

[6] = Toxicity: animal body weight and H&E staining of major organs; format: in vivo, mouse; details: mice with lung cancer; 1 mg/kg of 5-aza-dC and MS-275 twice per week for 6 weeks
[7] = test system: PDLIM2; test: qPCR analysis of PDLIM2 expression in human lung cancer cell lines; format: cell-based
[8] = test system: lung cancer induced by urethane; test: Urethane model of lung cancer, tumor examination; format: in vivo, mouse; details: ΔSPC mice (lung epithelial PDLIM2 deletion), 5-aza-dC and MS275 combination therapy (Epi)
Method: (§2) Urethane model: 6-8-week-old mice under FVB/N background were intraperitoneally (i.p.) injected with urethane (1 g/kg body weight, Sigma-Aldrich, St. Louis, MO, USA) once a week for six weeks. All mice were sacrificed for lung tumor examinations seven (for no drug treatment experiments) or six (for drug treatment experiments) weeks post urethane treatment. For drug treatment experiments, the epigenetic agents 5-aza-dC (1 mg/kg body weight, Sigma-Aldrich, St. Louis, MO, USA) and MS-275 (1 mg/kg body weight, Selleckchem, Houston, TX, USA), chemotherapeutic drugs carboplatin (30 mg/kg body weight, AdipoGen, San Diego, CA, USA) and paclitaxel (15 mg/kg body weight, AdipoGen, San Diego, CA, USA), and/or PD-1 neutralizing antibody (200 μg/mouse, BioXCell, West Lebanon, NH, USA) were i.p injected as indicated in FIG. 4. Surface tumors in mouse lungs were counted by three blinded readers under a dissecting microscope, and tumor diameters were measured by microcalipers. K-Ras^G12D model: 6-8-week-old mice under FVB/N background were intranasally administered 1×10^7 plaque-forming units of Cre-expressing adenovirus (adenocre; Gene Transfer Vector Core, University of Iowa, Iowa City, IA). Three months post AdenoCre treatment, all mice were sacrificed for lung tumor examinations.
PDLIM2flx/flx/SP-C-rtTAtg/−/(tetO)7CMV-Cretg/tg (ΔSPC) mice under a pure FVB/N background and PDLIM2−/− mice under a pure BABL/C background have been described before (Sun et al., Nat. Commun. 2019. 10, 5324). For lung carcinogenesis, six to eight week old ΔSPC and wild type FVB/N mice were intraperitoneally (i.p.) injected with urethane (1 mg/g body weight, Sigma-Aldrich, St. Louis, MO, USA) once a week for six consecutive weeks, followed by different treatment as shown in FIGS. 45A and 49A. Mice were sacrificed for lung inflammation and tumor examinations at six weeks post urethane treatment. Surface tumors in mouse lungs were counted blinded under a dissecting microscope, and tumor diameters were measured by microcalipers. […]

[9] = test system: PDLIM2; test: qPCR analysis of PDLIM2 in mouse MAD109 lung cancer cells; format: cell-based
[10] = test system: PD-L1; test: IHC staining of PD-L1 in lung cancer (urethane model); format: in vivo, mouse; details: 5-aza-dC and MS-275 together
Method: as §2
Mouse or tissues were excised, fixed in formalin, embedded in paraffin, and cut into […] sections. Sections were stained with H&E, or subjected to sequential incubations with different primary antibodies and peroxidase-conjugated goat anti-rabbit secondary antibodies. The human lung tumor tissue arrays were described previously (Sun et al., Oncogene 35, 2299-2310 (2016)).
Lung tissues were excised, fixed in formalin, embedded in paraffin, and cut into 4-μm-thick sections. Sections were stained with H&E, or subjected to sequential incubations with the indicated primary antibodies, biotinylated secondary antibodies and streptavidin-HRP.

[11] = test system: PDLIM2; test: IHC staining of PDLIM2 in mouse lung tumors and tissues (urethane model); format: in vivo
Method: as §2
Mouse or tissues were excised, fixed in formalin, embedded in paraffin, and cut into 4-pm-thick sections. […]

Row | SMILES | BACH1 nuclear translocation in AMs (IF) [1] | PDLIM2 expression (qPCR) [2] | PDLIM2 in AMs (IF) [3] | PDLIM2 in AMs (qPCR) [3] | cell growth [4] | PD-L1 expression (qPCR) [5] | animal body weight [6] | PDLIM2 expression (qPCR) ([7]; H460 human lung cancer cells) | PDLIM2 expression (qPCR) ([7]; human lung cancer cell lines) | PDLIM2 expression (qPCR) ([7]; human lung cancer cell lines, listed as MS275) | PDLIM2 expression (qPCR) ([7]; normal human lung epithelial cell line NL-20 with oncogenic K-Ras Q61H mutant) | lung cancer treatment (tumor examination) [8] | PDLIM2 expression (qPCR) [9] | PD-L1 expression in lung cancer (IHC staining) [10] | PDLIM2 expression in murine lung cancers ([11]; both in vitro and in vivo) | PDLIM2 expression in mouse lung tumor (IHC staining) ([11]; urethane model, 5-aza-dC and MS-275 (epigenetic drugs) given together)
1 | CC(=O)N[C@@H](CS)C(=O)O [NAC, N-Acetyl-L-cysteine] | could efficiently be blocked; also recorded: inhibition of BACH1 nuclear translocation | could block the PDLIM2 suppression; also recorded: recovery | PDLIM2 induction | could efficiently be blocked; also recorded: increased PDLIM2 | – | – | – | – | – | – | – | – | – | – | – | –
2 | Nc1ccccc1NC(=O)c1ccc(CNC(=O)OCc2cccnc2)cc1 [MS-275, entinostat] | – | – | – | – | protected human lung cancer cells; also recorded: protection of human lung cancer cells | PD-L1 induction | body weight loss | PDLIM2 recovery; also recorded: time-dependent induction of PDLIM2 | induction of PDLIM2 | induced PDLIM2 re-expression | PDLIM2 re-induction | completely lost the ability to treat lung cancer; also recorded: complete resistance | PDLIM2 re-induction | PD-L1 induction | could be restored | PDLIM2 recovery
